# Laboratory results: PMC7933434, “Entropy-driven binding of gut bacterial β-glucuronidase inhibitors ameliorates irinotecan-induced toxicity” (Communications Biology, 2021)
# Several values for one entry are separate records, joined by “and”; a condition that tells them apart may be missing. Equal values may be shown once.
# Legend:
# [1] = design: method as in PMID 18537837; conditions: endocyclic amine; cited from earlier work
# [2] = target: LgGUS (Lactobacillus gasseri GUS) (Lactobacillus gasseri, UniProt Q9AHJ8); assay: GUS inhibition assay, hydrolysis of 4-methylumbelliferyl-β-glucuronide, LgGUS; type: biochemical; design: GUS activity (hydrolysis rate of MUG) / 1/v: unit not given here
# Sequence of LgGUS (Lactobacillus gasseri GUS) (Q9AHJ8 1-598): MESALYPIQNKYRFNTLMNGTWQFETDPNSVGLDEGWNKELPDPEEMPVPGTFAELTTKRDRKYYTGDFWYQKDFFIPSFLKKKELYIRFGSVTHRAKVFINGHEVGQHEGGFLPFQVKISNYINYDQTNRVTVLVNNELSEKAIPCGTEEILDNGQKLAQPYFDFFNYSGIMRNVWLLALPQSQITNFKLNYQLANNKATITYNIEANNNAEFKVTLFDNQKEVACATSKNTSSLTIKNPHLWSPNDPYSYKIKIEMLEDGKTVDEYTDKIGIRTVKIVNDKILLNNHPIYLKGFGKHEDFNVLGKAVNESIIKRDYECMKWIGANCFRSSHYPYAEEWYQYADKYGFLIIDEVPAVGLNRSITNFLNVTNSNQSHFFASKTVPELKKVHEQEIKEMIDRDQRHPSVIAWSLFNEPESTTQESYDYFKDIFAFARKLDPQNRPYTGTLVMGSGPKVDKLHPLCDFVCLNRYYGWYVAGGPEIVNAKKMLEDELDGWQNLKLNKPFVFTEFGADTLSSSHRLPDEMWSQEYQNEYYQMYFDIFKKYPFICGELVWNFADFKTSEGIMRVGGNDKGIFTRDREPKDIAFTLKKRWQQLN
# HsGUS (human GUS) = target: T1, HsGUS (human GUS) (Homo sapiens, UniProt P08236); assay: GUS inhibition assay, hydrolysis of 4-methylumbelliferyl-β-glucuronide, HsGUS; type: biochemical; design: GUS activity (hydrolysis rate of MUG): unit not given here
# T1 construct: HsGUS was prepared as described[37]; made in house
# T1 sequence (P08236 23-651): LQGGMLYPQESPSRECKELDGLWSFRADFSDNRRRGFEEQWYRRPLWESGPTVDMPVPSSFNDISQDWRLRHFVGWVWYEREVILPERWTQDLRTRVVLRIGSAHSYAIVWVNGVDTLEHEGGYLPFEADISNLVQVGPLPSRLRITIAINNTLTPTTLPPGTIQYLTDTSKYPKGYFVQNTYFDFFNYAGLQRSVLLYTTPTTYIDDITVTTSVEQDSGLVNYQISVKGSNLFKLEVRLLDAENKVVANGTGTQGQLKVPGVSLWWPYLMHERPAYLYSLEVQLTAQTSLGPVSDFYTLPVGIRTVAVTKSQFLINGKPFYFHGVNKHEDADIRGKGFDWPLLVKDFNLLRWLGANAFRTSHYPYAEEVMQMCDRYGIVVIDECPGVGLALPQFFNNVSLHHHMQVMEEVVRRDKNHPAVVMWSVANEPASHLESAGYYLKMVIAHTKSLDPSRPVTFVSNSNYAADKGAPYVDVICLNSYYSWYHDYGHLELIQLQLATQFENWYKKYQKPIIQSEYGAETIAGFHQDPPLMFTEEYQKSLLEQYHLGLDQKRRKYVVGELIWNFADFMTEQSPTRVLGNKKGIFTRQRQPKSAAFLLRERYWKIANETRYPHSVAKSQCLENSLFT
# [3] = [Inhibitor 2] = 10 μM, [MUG] 0.0375 mM
# [4] = [Inhibitor 2] = 10 μM, [MUG] 0.075 mM
# [5] = [Inhibitor 2] = 10 μM, [MUG] 0.15 mM
# [6] = [Inhibitor 2] = 10 μM, [MUG] 0.3 mM
# [7] = [Inhibitor 2] = 20 μM, [MUG] 0.0375 mM
# [8] = [Inhibitor 2] = 20 μM, [MUG] 0.075 mM
# [9] = [Inhibitor 2] = 20 μM, [MUG] 0.15 mM
# [10] = [Inhibitor 2] = 20 μM, [MUG] 0.3 mM
# [11] = [Inhibitor 2] = 40 μM, [MUG] 0.0375 mM
# [12] = [Inhibitor 2] = 40 μM, [MUG] 0.075 mM
# [13] = [Inhibitor 2] = 40 μM, [MUG] 0.15 mM
# [14] = [Inhibitor 2] = 40 μM, [MUG] 0.3 mM
# [15] = [Inhibitor 2] = 80 μM, [MUG] 0.0375 mM
# [16] = [Inhibitor 2] = 80 μM, [MUG] 0.075 mM
# [17] = [Inhibitor 2] = 80 μM, [MUG] 0.15 mM
# [18] = [Inhibitor 2] = 80 μM, [MUG] 0.3 mM
smiles,measurement,setting,value
"CCC[C@@H]1NC[C@@H](O)[C@H](O)[C@H]1C(=O)O [Inhibitor 2, C6-propyl UIFG]",pKa,[1],9.4
same,Ki,"[2]; LgGUS, 50 mM sodium acetate pH 4.5, 37 °C",18.8 ± 3.92 µM
same,1/v,[2]; [3],0.2959 and 0.2974 and 0.2686
same,GUS activity (hydrolysis rate of MUG),[2]; [3],4192.53 and 4171.53 and 4614.39
same,1/v,[2]; [4],0.2107 and 0.1906 and 0.2077
same,GUS activity (hydrolysis rate of MUG),[2]; [4],5869.97 and 6487.03 and 5954.69
same,1/v,[2]; [5],0.1628 and 0.149 and 0.1679
same,GUS activity (hydrolysis rate of MUG),[2]; [5],7584.59 and 8286.19 and 7358.86
same,1/v,[2]; [6],0.1383 and 0.1264 and 0.1356
same,GUS activity (hydrolysis rate of MUG),[2]; [6],8920.98 and 9760.49 and 9099.17
same,1/v,[2]; [7],0.3501 and 0.314 and 0.3449
same,GUS activity (hydrolysis rate of MUG),[2]; [7],3549.69 and 3952.79 and 3602.4
same,1/v,[2]; [8],0.2306 and 0.2185 and 0.2316
same,GUS activity (hydrolysis rate of MUG),[2]; [8],5367.33 and 5663.13 and 5345.77
same,1/v,[2]; [9],0.1785 and 0.1636 and 0.1746
same,GUS activity (hydrolysis rate of MUG),[2]; [9],6921.34 and 7548.25 and 7076.25
same,1/v,[2]; [10],0.1408 and 0.1323 and 0.1394
same,GUS activity (hydrolysis rate of MUG),[2]; [10],8767.09 and 9326.73 and 8851.1
same,1/v,[2]; [11],0.4229 and 0.3884 and 0.4078
same,GUS activity (hydrolysis rate of MUG),[2]; [11],2945.2 and 3203.76 and 3052.97
same,1/v,[2]; [12],0.2757 and 0.2635 and 0.2787
same,GUS activity (hydrolysis rate of MUG),[2]; [12],4496.55 and 4702.63 and 4448.51
same,1/v,[2]; [13],0.1987 and 0.186 and 0.1977
same,GUS activity (hydrolysis rate of MUG),[2]; [13],6224 and 6644.75 and 6252.92
same,1/v,[2]; [14],0.1513 and 0.1407 and 0.1527
same,GUS activity (hydrolysis rate of MUG),[2]; [14],8157.58 and 8770.43 and 8083.43
same,1/v,[2]; [15],0.6318 and 0.5917 and 0.6372
same,GUS activity (hydrolysis rate of MUG),[2]; [15],1984.8 and 2116.68 and 1968.46
same,1/v,[2]; [16],0.3742 and 0.3532 and 0.3763
same,GUS activity (hydrolysis rate of MUG),[2]; [16],3323.3 and 3518.37 and 3305.44
same,1/v,[2]; [17],0.2434 and 0.2308 and 0.2421
same,GUS activity (hydrolysis rate of MUG),[2]; [17],5087.86 and 5362.93 and 5115.03
same,1/v,[2]; [18],0.1723 and 0.1599 and 0.1688
same,GUS activity (hydrolysis rate of MUG),[2]; [18],7171.31 and 7724.06 and 7316.31
same,Ki,"HsGUS (human GUS); HsGUS, 50 mM sodium acetate pH 4.5, 37 °C",36.1 ± 7.5 µM
same,GUS activity (hydrolysis rate of MUG),"HsGUS (human GUS); [Inhibitor 2] =2 μM, [MUG] 0.1 mM",948.853 and 951.385
same,GUS activity (hydrolysis rate of MUG),"HsGUS (human GUS); [Inhibitor 2] =2 μM, [MUG] 0.2 mM",1632.03 and 1685.82
same,GUS activity (hydrolysis rate of MUG),"HsGUS (human GUS); [Inhibitor 2] =2 μM, [MUG] 0.4 mM",2642.25 and 2523.4
same,GUS activity (hydrolysis rate of MUG),"HsGUS (human GUS); [Inhibitor 2] =2 μM, [MUG] 0.6 mM",3352.21 and 3311.67
same,GUS activity (hydrolysis rate of MUG),"HsGUS (human GUS); [Inhibitor 2] =2 μM, [MUG] 0.8 mM",3926.69 and 3841.33
same,GUS activity (hydrolysis rate of MUG),"HsGUS (human GUS); [Inhibitor 2] =2 μM, [MUG] 1.2 mM",4682.68 and 4814.95
same,GUS activity (hydrolysis rate of MUG),"HsGUS (human GUS); [Inhibitor 2] =2 μM, [MUG] 1.6 mM",5075.17 and 5261.75
same,GUS activity (hydrolysis rate of MUG),"HsGUS (human GUS); [Inhibitor 2] =2 μM, [MUG] 2 mM",5616.94 and 5799.63
same,GUS activity (hydrolysis rate of MUG),"HsGUS (human GUS); [Inhibitor 2] =5 μM, [MUG] 0.1 mM",870.401 and 901.046
same,GUS activity (hydrolysis rate of MUG),"HsGUS (human GUS); [Inhibitor 2] =5 μM, [MUG] 0.2 mM",1774.12 and 1609.49
same,GUS activity (hydrolysis rate of MUG),"HsGUS (human GUS); [Inhibitor 2] =5 μM, [MUG] 0.4 mM",2566.62 and 2497.87
same,GUS activity (hydrolysis rate of MUG),"HsGUS (human GUS); [Inhibitor 2] =5 μM, [MUG] 0.6 mM",3244.91 and 3390.27
same,GUS activity (hydrolysis rate of MUG),"HsGUS (human GUS); [Inhibitor 2] =5 μM, [MUG] 0.8 mM",3688.45 and 3865.44
same,GUS activity (hydrolysis rate of MUG),"HsGUS (human GUS); [Inhibitor 2] =5 μM, [MUG] 1.2 mM",4481.74 and 4357.11
same,GUS activity (hydrolysis rate of MUG),"HsGUS (human GUS); [Inhibitor 2] =5 μM, [MUG] 1.6 mM",5234.04 and 5031.9
same,GUS activity (hydrolysis rate of MUG),"HsGUS (human GUS); [Inhibitor 2] =5 μM, [MUG] 2 mM",5683.23 and 5771.06
same,GUS activity (hydrolysis rate of MUG),"HsGUS (human GUS); [Inhibitor 2] =10 μM, [MUG] 0.1 mM",788.919 and 835.551
same,GUS activity (hydrolysis rate of MUG),"HsGUS (human GUS); [Inhibitor 2] =10 μM, [MUG] 0.2 mM",1388.11 and 1357.62
same,GUS activity (hydrolysis rate of MUG),"HsGUS (human GUS); [Inhibitor 2] =10 μM, [MUG] 0.4 mM",2139.7 and 2292.26
same,GUS activity (hydrolysis rate of MUG),"HsGUS (human GUS); [Inhibitor 2] =10 μM, [MUG] 0.6 mM",2815.06 and 3009.55
same,GUS activity (hydrolysis rate of MUG),"HsGUS (human GUS); [Inhibitor 2] =10 μM, [MUG] 0.8 mM",3419.24 and 3416.94
same,GUS activity (hydrolysis rate of MUG),"HsGUS (human GUS); [Inhibitor 2] =10 μM, [MUG] 1.2 mM",4195.01 and 4091.63
same,GUS activity (hydrolysis rate of MUG),"HsGUS (human GUS); [Inhibitor 2] =10 μM, [MUG] 1.6 mM",5141.39 and 4873.96
same,GUS activity (hydrolysis rate of MUG),"HsGUS (human GUS); [Inhibitor 2] =10 μM, [MUG] 2 mM",5569.48 and 4956.18
same,GUS activity (hydrolysis rate of MUG),"HsGUS (human GUS); [Inhibitor 2] =20 μM, [MUG] 0.1 mM",633.046 and 650.421
same,GUS activity (hydrolysis rate of MUG),"HsGUS (human GUS); [Inhibitor 2] =20 μM, [MUG] 0.2 mM",1058.97 and 1051.89
same,GUS activity (hydrolysis rate of MUG),"HsGUS (human GUS); [Inhibitor 2] =20 μM, [MUG] 0.4 mM",1746.1 and 1806.97
same,GUS activity (hydrolysis rate of MUG),"HsGUS (human GUS); [Inhibitor 2] =20 μM, [MUG] 0.6 mM",2323.32 and 2357.04
same,GUS activity (hydrolysis rate of MUG),"HsGUS (human GUS); [Inhibitor 2] =20 μM, [MUG] 0.8 mM",2744.58 and 2819.54
same,GUS activity (hydrolysis rate of MUG),"HsGUS (human GUS); [Inhibitor 2] =20 μM, [MUG] 1.2 mM",3443.09 and 3077.07
same,GUS activity (hydrolysis rate of MUG),"HsGUS (human GUS); [Inhibitor 2] =20 μM, [MUG] 1.6 mM",3957.48 and 3836.46
same,GUS activity (hydrolysis rate of MUG),"HsGUS (human GUS); [Inhibitor 2] =20 μM, [MUG] 2 mM",4613.38 and 4482.85
same,GUS activity (hydrolysis rate of MUG),"HsGUS (human GUS); [Inhibitor 2] =40 μM, [MUG] 0.1 mM",425.121 and 430.469
same,GUS activity (hydrolysis rate of MUG),"HsGUS (human GUS); [Inhibitor 2] =40 μM, [MUG] 0.2 mM",709.381 and 742.235
same,GUS activity (hydrolysis rate of MUG),"HsGUS (human GUS); [Inhibitor 2] =40 μM, [MUG] 0.4 mM",1260.88 and 1281.33
same,GUS activity (hydrolysis rate of MUG),"HsGUS (human GUS); [Inhibitor 2] =40 μM, [MUG] 0.6 mM",1728.03 and 1805.44
same,GUS activity (hydrolysis rate of MUG),"HsGUS (human GUS); [Inhibitor 2] =40 μM, [MUG] 0.8 mM",2092.2 and 2090.09
same,GUS activity (hydrolysis rate of MUG),"HsGUS (human GUS); [Inhibitor 2] =40 μM, [MUG] 1.2 mM",2609.86 and 2615.59
same,GUS activity (hydrolysis rate of MUG),"HsGUS (human GUS); [Inhibitor 2] =40 μM, [MUG] 1.6 mM",3152.02 and 3056.96
same,GUS activity (hydrolysis rate of MUG),"HsGUS (human GUS); [Inhibitor 2] =40 μM, [MUG] 2 mM",3549.78 and 3510.91
same,GUS activity (hydrolysis rate of MUG),"HsGUS (human GUS); [Inhibitor 2] =75 μM, [MUG] 0.1 mM",269.697 and 248.688
same,GUS activity (hydrolysis rate of MUG),"HsGUS (human GUS); [Inhibitor 2] =75 μM, [MUG] 0.2 mM",469.532 and 449.551
same,GUS activity (hydrolysis rate of MUG),"HsGUS (human GUS); [Inhibitor 2] =75 μM, [MUG] 0.4 mM",868.241 and 807.629
same,GUS activity (hydrolysis rate of MUG),"HsGUS (human GUS); [Inhibitor 2] =75 μM, [MUG] 0.6 mM",1207.03 and 1153.12
same,GUS activity (hydrolysis rate of MUG),"HsGUS (human GUS); [Inhibitor 2] =75 μM, [MUG] 0.8 mM",1515.37 and 1395.3
same,GUS activity (hydrolysis rate of MUG),"HsGUS (human GUS); [Inhibitor 2] =75 μM, [MUG] 1.2 mM",1853.64 and 1948.04
same,GUS activity (hydrolysis rate of MUG),"HsGUS (human GUS); [Inhibitor 2] =75 μM, [MUG] 1.6 mM",2229.7 and 2415.81
same,GUS activity (hydrolysis rate of MUG),"HsGUS (human GUS); [Inhibitor 2] =75 μM, [MUG] 2 mM",2629.91 and 2703.96
